This is an account of results in patent US20160361398A1, “METHOD FOR THE TREATMENT OF MULTIPLE SCLEROSIS” (Vereniging voor Christelijk Wetenschappe Onderwijs, priority 2015, published 2016).

No end group written: not given here.

For assay [1], the system named is MOG-responsive CD4+ T cells (2D2 T cells). Put plainly: T helper differentiation: antigen-pulsed DCs co-cultured with naive 2D2 CD4+ T cells, intracellular staining for Foxp3 and IFN-γ. Format: cell-based, mouse. Particulars: cultured six days with 2D2 T cells; for induction of suppressive Foxp3+CD4+ T cells: FIG. 1A; for CD4+ IFN-γ+ MOG effector T cells: FIG. 1B. The source says:
For that purpose, DC were pulsed with α-2-6-Sia-MOG35-55 and a non-sialylated MOG 35-55 peptide as a control, and cultured for six days with MOG-responsive CD4^+ T cells (2D2 T cells (Bettelli et al., J. Exp. Med., 2003).
(§1) Antigen-specific nave CD4+CD62LhiCD25− T cells were purified from spleen and LN cell suspensions obtained from 2D2 mice using the Dynal mouse CD4+ CD62L+ T cell isolation kit II mouse (Miltenyi Biotec, Bergisch Gladbach, Germany) or by sorting on a MoFlo (DakoCytomation, Glostrup, Denmark). The resulting naïve CD4+ CD62L+CD25− T cell populations were typically 95% pure as assessed by flow cytometry. Naïve CD4+ T cells (5×10^4) were added to wells containing DCs (1×10^4) that were pulsed with indicated concentrations of antigen modified with a sialylated oligosaccharide or native antigen 3 hours prior. After 2 days, 10 U/ml recombinant mouse IL-2 (Invitrogen, Bleijswijk, The Netherlands) was added. T-cell polarization was evaluated on day 6 by intra-cellular staining for Foxp3 and IFN-γ following 5 hours restimulation with phorbol 12-myristate 13-acetate (PMA; […])/ionomycin (Sigma; 500 ng/ml) in the presence of Brefeldin A (Sigma; 5 μg/ml). For inhibition of effector Th1 and Th17 cells, Naïve 2D2 T cells were converted in Th1 or Th17 cells by culturing; one week later, effector T cells re-stimulated with DC pulsed with MOG or Sialylated MOG. After 24 hours, the supernatant was harvested for presence of IFN-γ or IL 17 as measure of activity of Th1 and Th17 effector cells, respectively.

Assay [2] relates to Th1 and Th17 cells generated from 2D2 CD4 T cells. Put plainly: Inhibition of effector Th1 and Th17 cells generated from 2D2 T cells, re-stimulated with pulsed DCs. The assay is classed as cell-based, mouse. Conditions: supernatant after 24 hours; for secretion of effector cytokine by Th1 cells (IFN-gamma): FIG. 1E left panel; for secretion of effector cytokine by Th17 cells (IL-17): FIG. 1E right panel.
Description: As stated hereinbefore, Th1 and Th17 are the effector CD4T cells that cause inflammation in MS. […] This was not observed when these effector cells were co-cultured with DCs loaded with non-sialylated MOG 35-55 (FIG. 1E). Thus, it was concluded that T cells generated in the presence of DCs exposed to α-2,6-Sia-MOG35-55, indeed were functional in that they were able to suppress MOG-specific effector T cells and, therefore, able to dampen ongoing inflammation. It follows that the disclosure may be applied for treating ongoing inflammation, such as the inflammation observed in MS patients, when, at the peak of the disease, auto-reactive, myelin-specific CD4^+ and CD8^+ T cells are involved in the demyelination of the neurons.
as §1

Assay [3] has as its system MOG-specific CD4+ (2D2) T-cells. Put plainly: IFN-γ in culture supernatants of DC / 2D2 T-cell co-cultures. Particulars: 2D2 T cells primed by antigen-loaded DCs; FIG. 1C. Format: cell-based, mouse. The method, then:
as §1, with “For inhibition of effector Th1 and Th17 cells, Naïve 2D2 T cells were converted in Th1 or Th17 cells by culturing; one week later, effector T cells re-stimulated with DC pulsed with MOG or Sialylated MOG. After 24 hours, the supernatant was harvested for presence of IFN-γ or IL 17 as measure of activity of Th1 and Th17 effector cells, respectively.” left out
(§2) Cytokine production by T cells and DCs was assessed by cytometric bead arrays using the CBA Th1/2/17 kit and mouse inflammation kit, respectively (BD Biosciences), or by ELISA using specific antibody pairs (eBiosciences) following the manufacturers' instructions.

Assay [4] relates to MOG-specific CD4+ T cells. Put plainly: qRT-PCR of MOG-specific CD4+ T cells isolated on day 6 of co-culture with pulsed DCs. Particulars: for Foxp3 mRNA level (qRT-PCR, normalized to GAPDH): FIG. 1D right panel. Format: cell-based, mouse. As for the experimental part: FIG. 1D: (Left panel) Expression of T-bet, which is a measure for IFN-γ-producing effector CD4 T cells (Th1). (Right panel) Foxp3 mRNA, which is a measure for Treg cells that suppress, were determined using qRT-PCR and subsequently normalized to housekeeping gene GAPDH, which is equal under all conditions.
Background: Quantitative PCR measures a nucleic acid by following its amplification.

Assay [5] has as its system MOG-reactive effector T cells from EAE mice. Put plainly: EAE splenocytes re-stimulated ex vivo with antigen-loaded DCs: IFN-γ production. The assay is classed as cell-based, mouse. Particulars: 4 days of culture; EAE mice with different scoring; FIG. 1G. As for the experimental part: To determine the functionality of the MOG-reactive effector cells, IFN-γ production was measured (FIG. 1G).
(§3) Splenocytes from mice that suffered EAE were re-stimulated ex-vivo with DCs loaded with either non-sialylated MOG or α-2-6-Sia-MOG35-55 and as a control, DC with no antigen. DC and T cells were cultured as described in Example 2, as described above, for 4 days. 3H and IFN-γ was determined as described above.
as §2

Assay [6] has as its system MOG-specific effector CD4 T cells from EAE splenocytes. Put plainly: EAE splenocytes re-stimulated ex vivo with antigen-loaded DCs: [3H]thymidine incorporation. Particulars: after 4 days of culture; EAE scores 1, 2 and 3; FIG. 1F. Format: cell-based, mouse. As for the experimental part: To examine this even further, testing was performed to determine whether DCs exposed to α-2,6-Sia-MOG35-55 were able to inhibit MOG-specific effector T cells that were obtained from splenocytes from mice suffering from experimental autoimmune encephalomyelitis (EAE). To this effect, CD4 effector T cells were harvested from splenocytes of mice at various EAE clinical scores, representing different stages of effector T cell number and activity, wherein score 1 is the onset of disease and score 2 and 3 are the more severe phases of the disease.
Testing was performed to determine whether DCs ex vivo loaded with Sia-MOG could inhibit the proliferation of the MOG-specific effector CD4 T cells that were obtained from EAE mice.
DCs loaded with α-2-6-Sia-MOG35-55 or non-sialylated MOG35-55 were cultured with EAE splenocytes and, after 4 days of culture, [3H]thymidine incorporation was determined as a measure of proliferation and division of CD4 T cells (FIG. 1 F).
as §3
(In general: Uptake of a labelled nucleoside into DNA is a usual measure of proliferation.)

For assay [7], the system named is naive MOG-specific CD4+ T cells (2D2). Put plainly: Antigen specificity: sia-OVA-loaded DCs challenged with MOG 35-55, co-cultured with 2D2 cells, Foxp3+ CD4+ by flow cytometry. The assay is classed as cell-based, mouse. Particulars: loaded DCs subsequently challenged with MOG 35-55. As for the experimental part: (§4) For that purpose, dendritic cells were loaded with sia-OVA and subsequently challenged in the presence of specific CD4+ T cells with either OVA or with a myelin oligodendrocyte glycoprotein peptide (MOG 35-55).
(§5) The thus-loaded dendritic cells were then co-cultured with naive MOG-specific CD4+ T cells (called 2D2) in the presence of MOG 35-55 or with naive OVA-specific CD4+ T cells (called OT-II) in the presence of ovalbumin (OVA).
(§6) Subsequently, it was determined whether sia-OVA-loaded dendritic cells were able to induce tolerogenic T cells in an antigen-specific manner. This was done by determining the percentage of Foxp3+ CD4+ T cells by flow cytometry.
On the technique in general: In flow cytometry, cells or beads pass a laser one at a time.

For assay [8], the system named is naive OVA-specific CD4+ T cells (OT-II). Put plainly: Antigen specificity: loaded DCs challenged with OVA, co-cultured with OT-II cells, Foxp3+ CD4+ by flow cytometry. The assay is classed as cell-based, mouse. Particulars: for tolerogenic cells (Foxp3+ CD4+ T cells) in a population of OT-II cells: loaded DCs subsequently challenged with OVA. The method, then:
as §4, §5, §6

Assay [9] relates to experimental autoimmune encephalomyelitis. Particulars: intravenous administration; cited from earlier work.

Consider “α-2-6-Sia-MOG35-55: MOG 35-55 peptide with N-terminal cysteine covalently attached via MPBH linker to 6′-sialyl-N-acetyllactosamine (Neu5Ac(α)2-6Gal(β)1-4GlcNAc) (GPGYPIRALVGDEAELPCRIS; not fully specified (N-terminus); also: N-terminal Cys linked via MPBH to 6'-sialyl-LacNAc (Neu5Ac(α)2-6Gal(β)1-4GlcNAc); UniProt Q61885 35-55, looked up, fragment)”, for which, in assay [1], the “induction of suppressive Foxp3+CD4+ T cells” value is reported as “majority of the CD4 T cells co-express Foxp3” and the “CD4+ IFN-γ+ MOG effector T cells” value came to 0.3%. In assay [2], the “secretion of effector cytokine by Th1 cells (IFN-gamma)” value is listed as “significantly reduced” and the “secretion of effector cytokine by Th17 cells (IL-17)” value is “significantly reduced”. Moreover, in assay [3], the “secreted IFN-γ in culture supernatants” value is given as “reduction”. Besides, the “Foxp3 mRNA level (qRT-PCR, normalized to GAPDH)” value in assay [4] is given as “high levels”. Also, in [5], the “IFN-γ production of MOG-reactive effector cells” value is “suppressed”. For the same substance, the “proliferation of MOG-specific CD4 T cells ([3H]thymidine incorporation)” value in assay [6] was “clear reduction of proliferation”.
Take “sia-OVA: sia-2,3 and 2,6-conjugated ovalbumin”: the “tolerogenic cells (Foxp3+ CD4+ T cells) in a population of 2D2 cells” value in assay [7] is “did not induce tolerogenic cells above background levels”. Moreover, the “tolerogenic cells (Foxp3+ CD4+ T cells) in a population of OT-II cells” value in assay [8] was “about 10%”.
Turning to “OVA: ovalbumin, control antigen [reference compound]”, the “tolerogenic cells (Foxp3+ CD4+ T cells) in a population of OT-II cells” value in assay [8] is reported as “did not induce tolerogenic cells above background levels”.
“α-2-6-Sia-OVA: OVA coupled to 6′-Sialyl-N-acetyllactosamine (6′-SLN)”: the “immune tolerance against OVA” value in [8] (DCs exposed to the antigen) was “capable of inducing immune tolerance against OVA”.
As to “MEVGWYRPPFSRVVHLYRNGK [non-sialylated MOG35-55, reference compound]”, in [1], the “induction of suppressive Foxp3+CD4+ T cells” value was “not induced” and the “CD4+ IFN-γ+ MOG effector T cells” value was 3.5%. Besides, in [2], the “secretion of effector cytokine by Th1 cells (IFN-gamma)” value is “not observed” and the “secretion of effector cytokine by Th17 cells (IL-17)” value was “not observed”. Moreover, the “secreted IFN-γ in culture supernatants” value in assay [3] was “significant amounts”. In addition, in assay [4] (FIG. 1D left panel), the “T-bet mRNA level (qRT-PCR, normalized to GAPDH)” value is on record as “higher mRNA levels”. Further, the “Foxp3 mRNA level (qRT-PCR, normalized to GAPDH)” value in [4] is listed as “hardly expressed”. The “effect on experimental autoimmune encephalomyelitis” value in assay [9] is recorded as “suppresses”. Besides, the “IFN-γ production of MOG-reactive effector cells” value in assay [5] is given as “enhance”. The “proliferation of MOG-specific CD4 T cells ([3H]thymidine incorporation)” value in [6] was “stimulate the proliferation”.
